{"source": "patent US5059589A", "about": "“Glaucoma treatment” (Abbott Laboratories, priority 1990, dated 1991)", "key": {"[1]": {"tested_on": "intraocular pressure in rabbits", "assay": "Dose response study of topically administered Compound V and timolol on intraocular pressure of rabbits", "assay_type": "in vivo, rabbit", "conditions": "topical", "method": "(§1) The antiglaucoma activity of the compounds was tested by measuring the effect on intraocular pressure in rabbits as described by Tinjum, A.M., Acta Ophthalmologica, 50, 677 (1972). Male albino, New Zealand rabbits were placed in restraining devices and the intraocular pressure was measured with an applamatic tonometer. […]"}, "[2]": {"tested_on": "intraocular pressure in rabbits", "assay": "Topically administered Compound V alone and in combination with timolol on intraocular pressure of rabbits", "assay_type": "in vivo, rabbit", "conditions": "topical, alone, 0.03%", "method": "as §1"}, "[3]": {"tested_on": "intraocular pressure in rabbits", "assay": "Effects of topically administered renin inhibiting compounds on intraocular pressure of rabbits", "assay_type": "in vivo, Male albino, New Zealand rabbits", "conditions": "topical 0.1 ml, 0.1% (w/v)", "method": "The antiglaucoma activity of the compounds was tested by measuring the effect on intraocular pressure in rabbits as described by Tinjum, A.M., Acta Ophthalmologica, 50, 677 (1972). Male albino, New Zealand rabbits were placed in restraining devices and the intraocular pressure was measured with an applamatic tonometer. Exactly 0.1 ml of an isotonic saline solution containing a test compound was instilled into the conjuctival sac and the intraocular pressure was measured at 5, 15, 30, 60, 90, 120 and 180 minutes afterwards."}, "[4]": {"conditions": "15 minutes after administration"}, "[5]": {"conditions": "30 minutes after administration"}, "[6]": {"conditions": "60 minutes after administration"}, "[7]": {"conditions": "90 minutes after administration"}, "[8]": {"conditions": "120 minutes after administration"}, "[9]": {"conditions": "180 minutes after administration"}}}
{"smiles": "COc1ccc(CC(NC(=O)CC(C)(C)N)C(=O)NC(Cc2cnc[nH]2)C(=O)N[C@@H](CC2CCCCC2)[C@@H](O)[C@@H](O)CC(C)C)cc1", "note": "(stereo partly drawn) [Compound V, H-((beta,beta-dimethyl)-beta Ala)-(4-OCH3)Phe-His amide of 2(S)-amino 1-cyclohexyl 3(R),4(S) dihydroxy-6-methylheptane]", "values": [{"measurement": "Mean Intraocular Pressure in mmHg", "setting": "[1]; 0.01%, 5 minutes after administration", "result": 17.7, "unit": "mmHg"}, {"measurement": "Mean Intraocular Pressure in mmHg", "setting": "[1]; 0.01%, 15 minutes after administration", "result": 16.3, "unit": "mmHg"}, {"measurement": "Mean Intraocular Pressure in mmHg", "setting": "[1]; 0.01%, 30 minutes after administration", "result": 13.7, "unit": "mmHg"}, {"measurement": "Mean Intraocular Pressure in mmHg", "setting": "[1]; 0.01%, 60 minutes after administration", "result": 16.9, "unit": "mmHg"}, {"measurement": "Mean Intraocular Pressure in mmHg", "setting": "[1]; 0.01%, 90 minutes after administration", "result": 15.4, "unit": "mmHg"}, {"measurement": "Mean Intraocular Pressure in mmHg", "setting": "[1]; 0.01%, 120 minutes after administration", "result": 18.2, "unit": "mmHg"}, {"measurement": "Mean Intraocular Pressure in mmHg", "setting": "[1]; 0.01%, 150 minutes after administration", "result": 20.3, "unit": "mmHg"}, {"measurement": "Mean Intraocular Pressure in mmHg", "setting": "[1]; 0.01%, CONTROL", "result": 19.2, "unit": "mmHg"}, {"measurement": "Mean Intraocular Pressure in mmHg", "setting": "[1]; 0.03%, 5 minutes after administration", "result": 13.8, "unit": "mmHg"}, {"measurement": "Mean Intraocular Pressure in mmHg", "setting": "[1]; 0.03%, 15 minutes after administration", "result": 13.3, "unit": "mmHg"}, {"measurement": "Mean Intraocular Pressure in mmHg", "setting": "[1]; 0.03%, 30 minutes after administration", "result": 12.8, "unit": "mmHg"}, {"measurement": "Mean Intraocular Pressure in mmHg", "setting": "[1]; 0.03%, 60 minutes after administration", "result": 13.8, "unit": "mmHg"}, {"measurement": "Mean Intraocular Pressure in mmHg", "setting": "[1]; 0.03%, 90 minutes after administration", "result": 13.8, "unit": "mmHg"}, {"measurement": "Mean Intraocular Pressure in mmHg", "setting": "[1]; 0.03%, 120 minutes after administration", "result": 15.2, "unit": "mmHg"}, {"measurement": "Mean Intraocular Pressure in mmHg", "setting": "[1]; 0.03%, 150 minutes after administration", "result": 16.8, "unit": "mmHg"}, {"measurement": "Mean Intraocular Pressure in mmHg", "setting": "[1]; 0.03%, CONTROL", "result": 19.0, "unit": "mmHg"}, {"measurement": "Mean Intraocular Pressure in mmHg", "setting": "[1]; 0.1%, 5 minutes after administration", "result": 14.1, "unit": "mmHg"}, {"measurement": "Mean Intraocular Pressure in mmHg", "setting": "[1]; 0.1%, 15 minutes after administration", "result": 13.1, "unit": "mmHg"}, {"measurement": "Mean Intraocular Pressure in mmHg", "setting": "[1]; 0.1%, 30 minutes after administration", "result": 11.9, "unit": "mmHg"}, {"measurement": "Mean Intraocular Pressure in mmHg", "setting": "[1]; 0.1%, 60 minutes after administration", "result": 11.3, "unit": "mmHg"}, {"measurement": "Mean Intraocular Pressure in mmHg", "setting": "[1]; 0.1%, 90 minutes after administration", "result": 11.5, "unit": "mmHg"}, {"measurement": "Mean Intraocular Pressure in mmHg", "setting": "[1]; 0.1%, 120 minutes after administration", "result": 17.5, "unit": "mmHg"}, {"measurement": "Mean Intraocular Pressure in mmHg", "setting": "[1]; 0.1%, 150 minutes after administration", "result": 19.0, "unit": "mmHg"}, {"measurement": "Mean Intraocular Pressure in mmHg", "setting": "[1]; 0.1%, CONTROL", "result": 18.7, "unit": "mmHg"}, {"measurement": "Mean Intraocular Pressure in mmHg", "setting": "[1]; 0.3%, 5 minutes after administration", "result": 13.3, "unit": "mmHg"}, {"measurement": "Mean Intraocular Pressure in mmHg", "setting": "[1]; 0.3%, 15 minutes after administration", "result": 12.0, "unit": "mmHg"}, {"measurement": "Mean Intraocular Pressure in mmHg", "setting": "[1]; 0.3%, 30 minutes after administration", "result": 10.9, "unit": "mmHg"}, {"measurement": "Mean Intraocular Pressure in mmHg", "setting": "[1]; 0.3%, 60 minutes after administration", "result": 12.2, "unit": "mmHg"}, {"measurement": "Mean Intraocular Pressure in mmHg", "setting": "[1]; 0.3%, 90 minutes after administration", "result": 12.4, "unit": "mmHg"}, {"measurement": "Mean Intraocular Pressure in mmHg", "setting": "[1]; 0.3%, 120 minutes after administration", "result": 16.0, "unit": "mmHg"}, {"measurement": "Mean Intraocular Pressure in mmHg", "setting": "[1]; 0.3%, 150 minutes after administration", "result": 18.8, "unit": "mmHg"}, {"measurement": "Mean Intraocular Pressure in mmHg", "setting": "[1]; 0.3%, CONTROL", "result": 21.2, "unit": "mmHg"}, {"measurement": "Mean Intraocular Pressure in mmHg", "setting": "[2]; 5 minutes after administration", "result": 10.4, "unit": "mmHg"}, {"measurement": "Mean Intraocular Pressure in mmHg", "setting": "[2]; [4]", "result": 10.3, "unit": "mmHg"}, {"measurement": "Mean Intraocular Pressure in mmHg", "setting": "[2]; [5]", "result": 10.1, "unit": "mmHg"}, {"measurement": "Mean Intraocular Pressure in mmHg", "setting": "[2]; [6]", "result": 10.2, "unit": "mmHg"}, {"measurement": "Mean Intraocular Pressure in mmHg", "setting": "[2]; [7]", "result": 10.4, "unit": "mmHg"}, {"measurement": "Mean Intraocular Pressure in mmHg", "setting": "[2]; [8]", "result": 14.5, "unit": "mmHg"}, {"measurement": "Mean Intraocular Pressure in mmHg", "setting": "[2]; 150 minutes after administration", "result": 17.0, "unit": "mmHg"}, {"measurement": "Mean Intraocular Pressure in mmHg", "setting": "[2]; CONTROL", "result": 17.5, "unit": "mmHg"}]}
{"smiles": "CC(C)(C)OC(=O)NC(Cc1ccccc1)C(=O)NC(Cc1cnc[nH]1)C(=O)NC(CC1CCCCC1)C(O)CSC1CCCCC1", "note": "(stereo not drawn) [Compound VI, Boc-Phe-His amide of 3-amino-4 cyclohexyl 1 cyclohexylmercapto-2-hydroxybutane]", "values": [{"measurement": "Mean Intraocular Pressure in mmHg", "setting": "[3]; 0 minutes after administration", "result": 21.0, "unit": "mmHg"}, {"measurement": "Mean Intraocular Pressure in mmHg", "setting": "[3]; 5 minutes after administration", "result": 16.5, "unit": "mmHg"}, {"measurement": "Mean Intraocular Pressure in mmHg", "setting": "[3]; [4]", "result": 16.5, "unit": "mmHg"}, {"measurement": "Mean Intraocular Pressure in mmHg", "setting": "[3]; [5]", "result": 15.2, "unit": "mmHg"}, {"measurement": "Mean Intraocular Pressure in mmHg", "setting": "[3]; [6]", "result": 14.7, "unit": "mmHg"}, {"measurement": "Mean Intraocular Pressure in mmHg", "setting": "[3]; [7]", "result": 21.7, "unit": "mmHg"}, {"measurement": "Mean Intraocular Pressure in mmHg", "setting": "[3]; [8]", "result": 22.4, "unit": "mmHg"}, {"measurement": "Mean Intraocular Pressure in mmHg", "setting": "[3]; [9]", "result": 19.9, "unit": "mmHg"}]}
{"smiles": "CCN1C[C@@H]([C@H](O)[C@H](CC2CCCCC2)NC(=O)[C@H](Cc2cnc[nH]2)NC(=O)[C@@H](CC(=O)N(C)CCOCOCCOC)Cc2ccccc2)OC1=O", "note": "[Compound IV, (2R)-2-benzyl-3-((2-methoxyethoxy-methoxyethyl)methylaminocarbonyl)propionyl-His amide of (2'S,1'R,5S)-3-ethyl-5-(1'-hydroxy 2'-amino-3'-cyclohexylpropyl) -oxazolidin-2-one]", "values": [{"measurement": "Mean Intraocular Pressure in mmHg", "setting": "[3]; 0 minutes after administration", "result": 18.2, "unit": "mmHg"}, {"measurement": "Mean Intraocular Pressure in mmHg", "setting": "[3]; 5 minutes after administration", "result": 14.5, "unit": "mmHg"}, {"measurement": "Mean Intraocular Pressure in mmHg", "setting": "[3]; [4]", "result": 13.0, "unit": "mmHg"}, {"measurement": "Mean Intraocular Pressure in mmHg", "setting": "[3]; [5]", "result": 13.3, "unit": "mmHg"}, {"measurement": "Mean Intraocular Pressure in mmHg", "setting": "[3]; [6]", "result": 14.2, "unit": "mmHg"}, {"measurement": "Mean Intraocular Pressure in mmHg", "setting": "[3]; [7]", "result": 16.3, "unit": "mmHg"}, {"measurement": "Mean Intraocular Pressure in mmHg", "setting": "[3]; [8]", "result": 14.9, "unit": "mmHg"}, {"measurement": "Mean Intraocular Pressure in mmHg", "setting": "[3]; [9]", "result": 16.2, "unit": "mmHg"}]}
{"smiles": "C=C(C[C@H](O)[C@H](O)[C@H](CC1CCCCC1)NC(=O)C(Cc1cnc[nH]1)NC(=O)C(Cc1ccccc1)NC(=O)OC(C)(C)C)C(=O)[O-].[Na+]", "note": "(stereo partly drawn) [Compound XII, Boc-Phe-His amide of (4S,5R,6S)-6-amino-7-cyclohexyl-4,5-dihydroxy-1-hepten-2-oic acid sodium salt]", "values": [{"measurement": "Mean Intraocular Pressure in mmHg", "setting": "[3]; 0 minutes after administration", "result": 19.3, "unit": "mmHg"}, {"measurement": "Mean Intraocular Pressure in mmHg", "setting": "[3]; 5 minutes after administration", "result": 12.5, "unit": "mmHg"}, {"measurement": "Mean Intraocular Pressure in mmHg", "setting": "[3]; [4]", "result": 10.3, "unit": "mmHg"}, {"measurement": "Mean Intraocular Pressure in mmHg", "setting": "[3]; [5]", "result": 12.4, "unit": "mmHg"}, {"measurement": "Mean Intraocular Pressure in mmHg", "setting": "[3]; [6]", "result": 12.3, "unit": "mmHg"}, {"measurement": "Mean Intraocular Pressure in mmHg", "setting": "[3]; [7]", "result": 12.3, "unit": "mmHg"}, {"measurement": "Mean Intraocular Pressure in mmHg", "setting": "[3]; [8]", "result": 14.6, "unit": "mmHg"}, {"measurement": "Mean Intraocular Pressure in mmHg", "setting": "[3]; [9]", "result": 16.3, "unit": "mmHg"}]}
{"smiles": "CC(C)CC(NC(=O)C(Cc1ccccc1)NC(=O)CCCC(=O)O)C(=O)N[C@@H](CC1CCCCC1)[C@@H](O)[C@@H](O)CC(C)C", "note": "(stereo partly drawn) [Compound XIII, 4-Carboxybutyroyl-Phe-Leu amide of 2(S)-amino 1-cyclohexyl 3(R),4(S)-dihydroxy 6-methylheptane]", "values": [{"measurement": "Mean Intraocular Pressure in mmHg", "setting": "[3]; 0 minutes after administration", "result": 19.5, "unit": "mmHg"}, {"measurement": "Mean Intraocular Pressure in mmHg", "setting": "[3]; 5 minutes after administration", "result": 17.6, "unit": "mmHg"}, {"measurement": "Mean Intraocular Pressure in mmHg", "setting": "[3]; [4]", "result": 17.2, "unit": "mmHg"}, {"measurement": "Mean Intraocular Pressure in mmHg", "setting": "[3]; [5]", "result": 15.6, "unit": "mmHg"}, {"measurement": "Mean Intraocular Pressure in mmHg", "setting": "[3]; [6]", "result": 16.4, "unit": "mmHg"}, {"measurement": "Mean Intraocular Pressure in mmHg", "setting": "[3]; [7]", "result": 16.3, "unit": "mmHg"}, {"measurement": "Mean Intraocular Pressure in mmHg", "setting": "[3]; [8]", "result": 17.5, "unit": "mmHg"}, {"measurement": "Mean Intraocular Pressure in mmHg", "setting": "[3]; [9]", "result": 15.3, "unit": "mmHg"}]}
